Drawing on patent EP4800018A1, “PAN-KRAS INHIBITOR AND USE THEREOF IN MEDICINES” (Betta Pharmaceuticals Co., Ltd., priority 2023, dated 2025), this text covers IC50 for 4 compounds.

In assay [1] the test system is KRAS-G12V mutant tumor cells SW620. As to the kind of experiment: Cell Proliferation Inhibition Assay (SW620), Cell-titer GLO, 96 h. Format: cell-based. As to conditions: Homo sapiens, SW-620, 96 h, SW620 cells, 96 h incubation, Cell-titer GLO; read-out: SW620(G12V). As for the experimental part:
(§1) KRAS-G12V mutant tumor cells SW620 were seeded in low-attachment 96-well plates at a cell density of 1×10^3 cells/well and cultured overnight in a cell culture incubator. After the cells adhered, the test compounds were added to the 96-well plates at final concentrations of 10000, 2000, 400, 80, 16, 3.2, 0.64, 0.13, 0.03, 0 nM (final concentration of DMSO was 0.5% for all). After incubation at 37°C for 96 h, 50 µL of Cell-titer GLO working solution was added to each well, mixed by shaking, incubated at room temperature for 10 min, and the Luminescence value was read on a multi-function microplate reader. The luminescence data were calculated and converted into inhibition percent. The inhibition percent of cell proliferation was calculated according to the following formula: Inhibition Percent = (MaxValue−MeasuredValue)/(MaxValue−Blank) × 100% [formula]
("Max Value" comes from the 0.5% DMSO control well, "Blank" comes from the blank control well, and "Measured Value" comes from the compound-treated well).
Curve fitting was performed using GraphPad Prism software to obtain IC50 values, see Table 1.

The subject of assay [2] is KRAS-G12D mutant tumor cells AGS. As to the kind of experiment: Cell Proliferation Inhibition Assay (AGS), Cell-titer GLO, 96 h. Format: cell-based. The conditions noted are these: Homo sapiens, AGS, 96 h, AGS cells, 96 h incubation, Cell-titer GLO; read-out: AGS(G12D). As for the experimental part:
as §1, with “KRAS-G12D” for “KRAS-G12V”, “AGS” for “SW620”, “After the cells adhered, the test compounds were added to the 96-well plates at final concentrations of 10000, 2000, 400, 80, 16, 3.2, 0.64, 0.13, 0.03, 0 nM (final concentration of DMSO was 0.5% for all).” left out, “[formula] […] Curve fitting was performed using GraphPad Prism software to obtain IC50 values, see Table 1.” for “[formula]”

Regarding `CC1OCCCn2c(c3c4cc(ccc42)-c2csc(n2)CC(NC(=O)C2C(C)C2C)C(=O)N2NC(C(=O)OCC(C)(C)C3)C3CC2C3)-c2cc(N3CCN(C)CC3)nnc21` [Example 195, (1r,2R,3S)-2,3-dimethyl-N-((1^5S,6^4S,4S,Z)-1^5,10,10-trimethyl-1^2-(4-methylpiperazin-1-yl)-5,7-dioxo-1^8,1^9-dihydro-1^5H,1^7H-8-oxa-6^2,6^3-diaza-1(13,15)-pyridazino[4',3':7,8][1,5]oxazonino[5,6-a]indola-2(4,2)-thiazola-6(2,4)-bicyclo[3.1.1]heptanacycloundecaphane-4-yl)cyclopropane-1-car boxamide], the IC50 in assay [1] was determined as 0.06 nM; in assay [2], 0.6 nM.
`CC1OCCCn2c(c3c4cc(ccc42)-c2csc(n2)CC(NC(=O)C2COC2)C(=O)N2NC(C(=O)OCC(C)(C)C3)C3CC2C3)-c2cc(N3CCN(C)CC3)cnc21` [Example 199, N-((1^5S,6^4S,4S,Z)-1^5,10,10-trimethyl-1^2-(4-methylpiperazin-1-yl)-5,7-dioxo-1^8,1^9-dihydro-1^5H, 1 ^7H-8-oxa-6^2,6^3-diaza-1(13,15)-pyrido[3',2':7,8][1,5]oxazonino[5,6-a]indola-2(4,2)-thiazola-6(2,4)-bicyclo[3.1.1]heptanacycloundecaphane-4-yl)oxetane-3-carboxamide]: the IC50 is 4.1 nM in assay [1] and 39 nM in assay [2].
Consider `CCN1CCN(c2cnc3c(c2)-c2c4c5cc(ccc5n2C[C@@H](OC)CO[C@H]3C)-c2csc(n2)C[C@H](NC(=O)[C@H]2C[C@@H]2C)C(=O)N2CCC[C@H](N2)C(=O)OCC(C)(C)C4)CC1` [Example 203, (1S,2S)-N-((1^5S,1^8R,6^3S,4S,Z)-1^2-(4-ethylpiperazin-1-yl)-1^8-methoxy-1^5,10,10-trimethyl-5,7-dioxo-1^8,1^9,6^1,6^26^3,6^4,6^5,6^6-octahydro-1^5H,1^7H-8-oxa-1(13,15)-pyrido[3',2':7,8][1,5]oxazonino[5,6-a]indola-2(4,2)-thiazola-6(1,3)-pyridazinacycloundecaphane-4-yl)-2-methylcyclopropane-1-carb oxamide], for which the IC50 in assay [1] stood at 3.3 nM; in assay [2], 2.1 nM.
Regarding `CC(C)[C@@H](C(=O)N[C@H]1Cc2nc(cs2)-c2ccc3c(c2)c(c2n3CCCO[C@@H](C)c3ncc(N4CCN(C)CC4)cc3-2)CC(C)(C)COC(=O)[C@H]2NN(C1=O)C1CC2C1)N(C)C(=O)N(C)C` [Example 204, (2S)-3-methyl-N-((1^5S,6^4S,4S,Z)-1^5,10,10-trimethyl-1^2-(4-methylpiperazin-1-yl)-5,7-dioxo-1^8,1^9-dihydro-1^5H,1^7H-8-oxa-6^2,6^3-diaza-1(13,15)-pyrido[3',2':7,8][1,5]oxazonino[5,6-a]indola-2(4,2) -thiazola-6(2,4)-bicyclo[3.1.1]heptanacycloundecaphane-4-yl)-2-(1,3,3-trimethylureido)butanamide], the IC50 in assay [1] worked out at 0.2 nM; in assay [2], 0.4 nM.
